Measured values reported in ChEMBL document CHEMBL4330122, “Modified ribavirin analogues as antiviral agents against Junín virus” (Bioorg Med Chem Lett, 2019).

Legend:
[1] = system: Junin virus; assay type: functional, organism-based; conditions: Mammarenavirus juninense, IV4454, Vero, 48 h
[2] = Cytotoxicity against human A549 cells assessed as reduction in cell viability after 48 hrs by MTT assay; assay type: cell-based
[3] = in vitro; conditions: monkey, Vero cells
[4] = in vitro; conditions: human, A549 cells
[5] = system: Junin virus; assay type: functional, organism-based; conditions: Mammarenavirus juninense, IV4454, A549, 48 h
[6] = Cytotoxicity against African green monkey Vero cells assessed as reduction in cell viability after 48 hrs by MTT assay; assay type: cell-based; conditions: chlorocebus sabaeus
[7] = Solubility of the compound in water; assay type: physicochemical

Compound	EC50 [1]	CC50 at 48 h [2]	selectivity ratio [3]	selectivity ratio [4]	EC50 [5]	CC50 at 48 h [6]	solubility [7]
OCc1cn([C@@H]2O[C@H](CO)[C@@H](O)[C@H]2O)nn1	215 µM	> 1 mM	> 4.7	> 19.7	50.7 µM	> 1 mM	–
CC1(C)O[C@@H]2[C@H](O1)[C@@H](Cn1cc(COC[C@H]3OC(O)[C@H](O)[C@@H](O)[C@H]3O)nn1)O[C@H]2n1cc(COCC(COCc2cn([C@@H]3O[C@H](Cn4cc(COC[C@H]5OC(O)[C@H](O)[C@@H](O)[C@H]5O)nn4)[C@H]4OC(C)(C)O[C@H]43)nn2)(COCc2cn([C@@H]3O[C@H](Cn4cc(COC[C@H]5OC(O)[C@H](O)[C@@H](O)[C@H]5O)nn4)[C@H]4OC(C)(C)O[C@H]43)nn2)COCc2cn([C@@H]3O[C@H](Cn4cc(COC[C@H]5OC(O)[C@H](O)[C@@H](O)[C@H]5O)nn4)[C@H]4OC(C)(C)O[C@H]43)nn2)nn1 (stereo partly drawn)	117 µM	> 1 mM	> 8.6	> 8.4	119 µM	> 1 mM	> 100 mg/mL
CCCCn1cc(COC[C@@H](O)[C@H](O)[C@H](O)[C@@H](O)CO)nn1	> 500 µM	> 1 mM	–	–	> 500 µM	> 1 mM	> 100 mg/mL
CCCCn1cc(COC[C@H]2OC(O)[C@H](O)[C@@H](O)[C@H]2O)nn1 (stereo partly drawn)	371 µM	> 1 mM	> 2.7	> 8.9	113 µM	> 1 mM	> 100 mg/mL
CC1(C)O[C@@H]2[C@H](O1)[C@@H](Cn1cc(COC[C@@H](O)[C@H](O)[C@H](O)[C@@H](O)CO)nn1)O[C@H]2n1cc(COCC(COCc2cn([C@@H]3O[C@H](Cn4cc(COC[C@@H](O)[C@H](O)[C@H](O)[C@@H](O)CO)nn4)[C@H]4OC(C)(C)O[C@H]43)nn2)(COCc2cn([C@@H]3O[C@H](Cn4cc(COC[C@H](O)[C@@H](O)[C@@H](O)[C@H](O)CO)nn4)[C@H]4OC(C)(C)O[C@H]43)nn2)COCc2cn([C@@H]3O[C@H](Cn4cc(COC[C@H](O)[C@@H](O)[C@@H](O)[C@H](O)CO)nn4)[C@H]4OC(C)(C)O[C@H]43)nn2)nn1	> 500 µM	> 1 mM	–	–	> 500 µM	> 1 mM	> 100 mg/mL
OC[C@@H](O)[C@H](O)[C@H](O)[C@@H](O)COCc1cn(CC(Cn2cc(COC[C@@H](O)[C@H](O)[C@H](O)[C@@H](O)CO)nn2)(Cn2cc(COC[C@@H](O)[C@H](O)[C@H](O)[C@@H](O)CO)nn2)Cn2cc(COC[C@@H](O)[C@H](O)[C@H](O)[C@@H](O)CO)nn2)nn1	> 500 µM	> 1 mM	–	–	> 500 µM	> 1 mM	> 100 mg/mL
CC(=O)OC[C@H]1O[C@@H](n2cc(COCC(COCc3cn([C@@H]4O[C@H](COC(C)=O)[C@@H](OC(C)=O)[C@H]4OC(C)=O)nn3)(COCc3cn([C@@H]4O[C@H](COC(C)=O)[C@@H](OC(C)=O)[C@H]4OC(C)=O)nn3)COCc3cn([C@@H]4O[C@H](COC(C)=O)[C@@H](OC(C)=O)[C@H]4OC(C)=O)nn3)nn2)[C@H](OC(C)=O)[C@@H]1OC(C)=O	> 500 µM	> 1 mM	–	–	> 500 µM	> 1 mM	–
CC1(C)O[C@@H]2[C@H](O1)[C@@H](CO)O[C@H]2n1cc(CO)nn1	51.3 µM	> 1 mM	> 19.5	> 11.6	86.4 µM	> 1 mM	–
CC1(C)O[C@H]2[C@H](OCc3cn(CC(Cn4cc(CO[C@@H]5O[C@H](Cn6cc(COC[C@@H](O)[C@H](O)[C@H](O)[C@@H](O)CO)nn6)[C@H]6OC(C)(C)O[C@@H]56)nn4)(Cn4cc(CO[C@@H]5O[C@H](Cn6cc(COC[C@H](O)[C@@H](O)[C@@H](O)[C@H](O)CO)nn6)[C@H]6OC(C)(C)O[C@@H]56)nn4)Cn4cc(CO[C@@H]5O[C@H](Cn6cc(COC[C@H](O)[C@@H](O)[C@@H](O)[C@H](O)CO)nn6)[C@H]6OC(C)(C)O[C@@H]56)nn4)nn3)O[C@H](Cn3cc(COC[C@@H](O)[C@H](O)[C@H](O)[C@@H](O)CO)nn3)[C@H]2O1	> 500 µM	> 1 mM	–	> 3.2	314 µM	> 1 mM	> 100 mg/mL
CCCCn1cc(CO[C@@H]2O[C@H](CN=[N+]=[N-])[C@H]3OC(C)(C)O[C@@H]23)nn1	13.2 µM	0.525 mM	57.9	38.5	13.6 µM	0.762 mM	–
CC(=O)OC[C@H]1O[C@@H](n2cc(CO)nn2)[C@H](OC(C)=O)[C@@H]1OC(C)=O	130 µM	> 1 mM	> 7.7	> 3.1	322 µM	> 1 mM	–
CCCCn1cc(CO[C@@H]2O[C@H](CO)[C@H]3OC(C)(C)O[C@@H]23)nn1	57.2 µM	> 1 mM	> 17.5	> 17.9	55.9 µM	> 1 mM	–
OC1O[C@H](COCc2cn(CC(Cn3cc(COC[C@H]4OC(O)[C@H](O)[C@@H](O)[C@H]4O)nn3)(Cn3cc(COC[C@H]4OC(O)[C@H](O)[C@@H](O)[C@H]4O)nn3)Cn3cc(COC[C@H]4OC(O)[C@H](O)[C@@H](O)[C@H]4O)nn3)nn2)[C@H](O)[C@H](O)[C@H]1O (stereo partly drawn)	371 µM	> 1 mM	> 2.7	> 3.2	314 µM	> 1 mM	> 100 mg/mL
CC1(C)O[C@H]2[C@H](OCc3cn(CC(Cn4cc(CO[C@@H]5O[C@H](CO)[C@H]6OC(C)(C)O[C@@H]56)nn4)(Cn4cc(CO[C@@H]5O[C@H](CO)[C@H]6OC(C)(C)O[C@@H]56)nn4)Cn4cc(CO[C@@H]5O[C@H](CO)[C@H]6OC(C)(C)O[C@@H]56)nn4)nn3)O[C@H](CO)[C@H]2O1	35.5 µM	0.209 mM	6.5	6.2	33.4 µM	0.233 mM	–
CC1(C)O[C@H]2[C@H](OCc3cn(CC(Cn4cc(CO[C@@H]5O[C@H](Cn6cc(COC[C@H]7OC(O)[C@H](O)[C@@H](O)[C@H]7O)nn6)[C@H]6OC(C)(C)O[C@@H]56)nn4)(Cn4cc(CO[C@@H]5O[C@H](Cn6cc(COC[C@H]7OC(O)[C@H](O)[C@@H](O)[C@H]7O)nn6)[C@H]6OC(C)(C)O[C@@H]56)nn4)Cn4cc(CO[C@@H]5O[C@H](Cn6cc(COC[C@H]7OC(O)[C@H](O)[C@@H](O)[C@H]7O)nn6)[C@H]6OC(C)(C)O[C@@H]56)nn4)nn3)O[C@H](Cn3cc(COC[C@H]4OC(O)[C@H](O)[C@@H](O)[C@H]4O)nn3)[C@H]2O1 (stereo partly drawn)	> 500 µM	> 1 mM	–	–	> 500 µM	> 1 mM	> 100 mg/mL
CCCCn1cc(CO[C@@H]2O[C@H](Cn3cc(COC[C@@H](O)[C@H](O)[C@H](O)[C@@H](O)CO)nn3)[C@H]3OC(C)(C)O[C@@H]23)nn1	209 µM	> 1 mM	> 4.8	> 2.6	389 µM	> 1 mM	> 100 mg/mL
OC[C@H]1O[C@@H](n2cc(COCC(COCc3cn([C@@H]4O[C@H](CO)[C@@H](O)[C@H]4O)nn3)(COCc3cn([C@@H]4O[C@H](CO)[C@@H](O)[C@H]4O)nn3)COCc3cn([C@@H]4O[C@H](CO)[C@@H](O)[C@H]4O)nn3)nn2)[C@H](O)[C@@H]1O	> 500 µM	> 1 mM	–	–	> 500 µM	> 1 mM	–
CC1(C)O[C@@H]2[C@H](O1)[C@@H](CO)O[C@H]2n1cc(COCC(COCc2cn([C@@H]3O[C@H](CO)[C@H]4OC(C)(C)O[C@H]43)nn2)(COCc2cn([C@@H]3O[C@H](CO)[C@H]4OC(C)(C)O[C@H]43)nn2)COCc2cn([C@@H]3O[C@H](CO)[C@H]4OC(C)(C)O[C@H]43)nn2)nn1	> 500 µM	> 1 mM	–	–	> 500 µM	> 1 mM	–
CCCCn1cc(CO[C@@H]2O[C@H](Cn3cc(COC[C@H]4OC(O)[C@H](O)[C@@H](O)[C@H]4O)nn3)[C@H]3OC(C)(C)O[C@@H]23)nn1 (stereo partly drawn)	22.1 µM	> 1 mM	> 45.2	> 48.5	20.6 µM	> 1 mM	> 100 mg/mL
CC1(C)O[C@H]2[C@H](OCc3cn(CC(Cn4cc(CO[C@@H]5O[C@H](CN=[N+]=[N-])[C@H]6OC(C)(C)O[C@@H]56)nn4)(Cn4cc(CO[C@@H]5O[C@H](CN=[N+]=[N-])[C@H]6OC(C)(C)O[C@@H]56)nn4)Cn4cc(CO[C@@H]5O[C@H](CN=[N+]=[N-])[C@H]6OC(C)(C)O[C@@H]56)nn4)nn3)O[C@H](CN=[N+]=[N-])[C@H]2O1 (stereo partly drawn)	> 500 µM	> 1 mM	–	–	> 500 µM	> 1 mM	–
NC(=O)c1ncn([C@@H]2O[C@H](CO)[C@@H](O)[C@H]2O)n1 [RIBAVIRIN]	–	0.307 mM	> 21.6	15.9	19.2 µM	> 0.4 mM	–
